The source of these data is ChEMBL document CHEMBL2146422, “Viequeamide A, a cytotoxic member of the kulolide superfamily of cyclic depsipeptides from a marine button cyanobacterium” (2012).

Experiment [1] concerns NCI-H460. Kind of experiment: Cytotoxicity against human H460 cells after 48 hrs by MTT assay. The note with it: NCI-H460, 48 h, read-out: LD50 (the source's name). It counts as functional.
Experiment [2] relates to NCI-H460. Kind of experiment: Cytotoxicity against human H460 cells at 30 ug/mL after 48 hrs by MTT assay. It counts as functional, cell-based.

The source made the active and inactive calls. The calls are words filed in the database; no cut-off is given here. *1 amine or outer side, *2 acyl side, *3 side chain or, on linkers, in order; H or OH if unused. Where a SMILES comes first, the peptide text is derived from it. Bridges are numbered along the chain shown (N, C = ends). [ ]: non-standard residue; d: D form. X1 = C#CCCC[C@H](O[*:2])C(C)(C)C(=O)[*:1]; X3 = C=CCCC[C@H](O[*:2])C(C)(C)C(=O)[*:1]; X2 = CCCCC[C@H](O[*:2])C(C)(C)C(=O)[*:1]; Hmp(2R,3S) = CC[C@H](C)[C@@H](O)C(=O)O; PhLac = O=C(O)[C@@H](O)Cc1ccccc1; NMeV = CN[C@H](C(=O)O)C(C)C; NMeA = CN[C@@H](C)C(=O)O

As to `C#CCCC[C@@H]1OC(=O)[C@H]([C@@H](C)O)NC(=O)[C@H](C(C)C)N(C)C(=O)[C@@H]2CCCN2C(=O)[C@@H]([C@@H](C)CC)OC(=O)[C@H](C(C)C)N(C)C(=O)[C@H](C(C)C)NC(=O)C1(C)C` [VIEQUEAMIDE A] (V[NMeV][Hmp(2R,3S)]P[NMeV]T; linker N-C via X1), in the experiment with NCI-H460 [1], the CC50 is 0.06 µM. Take `CCCCC[C@@H]1OC(=O)[C@H](C(C)C)NC(=O)[C@H](C)N(C)C(=O)[C@@H]2CCCN2C(=O)[C@H](Cc2ccccc2)OC(=O)[C@H](C(C)C)N(C)C(=O)[C@H](C(C)C)NC(=O)C1(C)C` (V[NMeV][PhLac]P[NMeA]V; linker N-C via X2): the result in the experiment with NCI-H460 [2] was inactive. Still for that read-out and setting: next, `C=CCCC[C@@H]1OC(=O)[C@H](C(C)C)NC(=O)[C@H](C)N(C)C(=O)[C@@H]2CCCN2C(=O)[C@H](Cc2ccccc2)OC(=O)[C@H](C(C)C)N(C)C(=O)[C@H](C(C)C)NC(=O)C1(C)C` (V[NMeV][PhLac]P[NMeA]V; linker N-C via X3): “inactive”; `C#CCCC[C@@H]1OC(=O)[C@H](C(C)C)NC(=O)[C@H](C)N(C)C(=O)[C@@H]2CCCN2C(=O)[C@H](Cc2ccccc2)OC(=O)[C@H](C(C)C)N(C)C(=O)[C@H](C(C)C)NC(=O)C1(C)C` (V[NMeV][PhLac]P[NMeA]V; linker N-C via X1): “inactive”.
